Structures can show the parent of a compound that is named as a salt.
Test system: Von Bezold-Jarisch Reflex induced by 5-HT
Experiment: Von Bezold-Jarisch Reflex induced by 5-HT injected intravenously
Type: in vivo
Settings: rat
Text: The activity of these compounds against 5-HT can be assessed in vivo by measurement of the effect of the compound on the Von Bezold-Jarisch Reflex induced by 5-HT injected intravenously into the rat (see Paintal A.S., Physiol. Rev. 53, 159-227, 1973; J.R. Fozard, Naunyn-Schmiedeberg's Arch. Pharmacol., 326, 1984, 36-44). The transient cardiac slowing arises from an increased afferent vagus activity arising from stimulation by 5-HT of sensory afferent fibers in and around the heart.

[1] = doses of 0.01-0.1 mg/kg given intravenously
[2] = doses of 0.25-1 mg/kg given orally

Structure (SMILES) | suppression of the Von Bezold-Jarisch Reflex response [1] | suppression of the Von Bezold-Jarisch Reflex response [2]
Cc1cc(C)cc(C(=O)OC2CC3CC4CC(C2)N3CC4=O)c1 (stereo not drawn) [endo-8-(3,5-dimethylbenzoyloxy)hexahydro-2,6-methano-2H-quinolizin-3(4H)-one] | suppressed the response dose-dependently | suppressed the response dose-dependently
O=C(OC1CC2CC3CC(C1)N2CC3=O)c1c[nH]c2ccccc12 (stereo not drawn) [endo-hexahydro-8-(3-indolylcarbonyloxy)-2,6-methano-2H-quinolizin-3(4H)one hydrochloride] | suppressed the response dose-dependently | suppressed the response dose-dependently

— patent EP0329904A1, “Use of quinolizine and quinolizinone derivatives in the manufacture of medicaments for the treatment of anxiety” (MERRELL DOW PHARMACEUTICALS INC., priority 1988, dated 1989)
